Laboratory results from ChEMBL document CHEMBL1201862, “PubChem BioAssay data set” (2004).
Calls of active or inactive are those of the source.

What was measured:
[1] = target: Cytochrome P450 2C9 (Homo sapiens, UniProt P11712)
[2] = target: T1, Estrogen receptor (Homo sapiens, UniProt P03372);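 also: potency for inhibiting coactivator peptide recruitment to the receptor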
T1 sequence (P03372 whole entry): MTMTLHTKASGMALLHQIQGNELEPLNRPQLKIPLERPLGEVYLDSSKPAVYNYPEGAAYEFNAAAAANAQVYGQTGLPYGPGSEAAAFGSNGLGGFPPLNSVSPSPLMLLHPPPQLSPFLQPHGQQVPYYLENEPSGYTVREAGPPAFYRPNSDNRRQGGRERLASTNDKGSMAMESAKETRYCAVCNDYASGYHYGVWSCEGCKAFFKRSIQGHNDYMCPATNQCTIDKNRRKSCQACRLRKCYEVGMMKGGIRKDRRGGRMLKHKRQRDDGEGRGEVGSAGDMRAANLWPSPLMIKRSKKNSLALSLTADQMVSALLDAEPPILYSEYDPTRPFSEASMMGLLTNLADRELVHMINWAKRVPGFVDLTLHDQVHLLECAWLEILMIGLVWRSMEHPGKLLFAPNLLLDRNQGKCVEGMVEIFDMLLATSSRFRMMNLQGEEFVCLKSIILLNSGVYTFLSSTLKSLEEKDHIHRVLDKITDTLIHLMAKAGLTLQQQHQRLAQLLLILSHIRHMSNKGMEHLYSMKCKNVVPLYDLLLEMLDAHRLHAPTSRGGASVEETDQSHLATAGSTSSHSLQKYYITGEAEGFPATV

[3] = target: T2, Cytochrome P450 1A2 (Homo sapiens, UniProt P05177);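 also: PubChem cytochrome P450 panel assay, CYP1A2 panel member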
T2 sequence (P05177 whole entry): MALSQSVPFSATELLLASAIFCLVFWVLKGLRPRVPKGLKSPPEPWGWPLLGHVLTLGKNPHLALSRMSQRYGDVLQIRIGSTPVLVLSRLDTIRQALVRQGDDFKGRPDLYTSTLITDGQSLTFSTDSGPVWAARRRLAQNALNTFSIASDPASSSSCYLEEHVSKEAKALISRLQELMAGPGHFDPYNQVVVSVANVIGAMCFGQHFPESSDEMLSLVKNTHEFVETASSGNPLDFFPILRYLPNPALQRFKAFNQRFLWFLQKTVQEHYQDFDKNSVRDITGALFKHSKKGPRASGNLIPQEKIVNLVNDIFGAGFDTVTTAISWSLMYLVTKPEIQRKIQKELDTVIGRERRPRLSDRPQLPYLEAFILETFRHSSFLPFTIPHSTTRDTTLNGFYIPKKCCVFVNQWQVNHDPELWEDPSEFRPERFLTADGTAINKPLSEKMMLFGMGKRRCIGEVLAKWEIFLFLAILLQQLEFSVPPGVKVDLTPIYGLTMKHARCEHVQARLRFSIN

[4] = target: Cytochrome P450 3A4 (Homo sapiens, UniProt P08684);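 also: CYP3A4 tested as one member of a cytochrome P450 panel screen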
Sequence of Cytochrome P450 3A4 (P08684 whole entry): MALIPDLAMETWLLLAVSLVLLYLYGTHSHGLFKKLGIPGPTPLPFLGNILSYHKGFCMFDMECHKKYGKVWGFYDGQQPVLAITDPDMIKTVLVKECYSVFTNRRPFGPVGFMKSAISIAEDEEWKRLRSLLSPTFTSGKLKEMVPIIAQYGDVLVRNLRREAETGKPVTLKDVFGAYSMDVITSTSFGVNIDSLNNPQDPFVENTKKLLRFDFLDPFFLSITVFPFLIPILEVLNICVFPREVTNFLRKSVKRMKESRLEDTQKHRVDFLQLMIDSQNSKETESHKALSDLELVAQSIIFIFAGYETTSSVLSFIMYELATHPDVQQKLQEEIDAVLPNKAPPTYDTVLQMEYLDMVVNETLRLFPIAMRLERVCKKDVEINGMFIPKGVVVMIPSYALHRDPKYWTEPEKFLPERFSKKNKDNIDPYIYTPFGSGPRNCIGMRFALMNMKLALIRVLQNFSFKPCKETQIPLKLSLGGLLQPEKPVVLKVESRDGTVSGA

[5] = target: Protein Tat (Human immunodeficiency virus type 1 group M subtype B (isolate HXB2)(HIV-1), UniProt P04608); type: functional;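 also: tat binding to TAR RNA read out by fluorescence polarization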
Sequence of Protein Tat (P04608 whole entry): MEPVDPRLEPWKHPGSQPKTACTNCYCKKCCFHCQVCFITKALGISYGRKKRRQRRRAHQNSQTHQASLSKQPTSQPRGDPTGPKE

[6] = test system: H4; assay: Luminescence Cell-Based Dose Response HTS to Identify Activators of 5'UTR Stem-Loop Driven Prion Protein mRNA Translation in H4 Neuroglioblastoma Cells. [Related pubchem assays: 1829 (Project Summary), 1814 (Primary HTS)]; type: functional; details: Homo sapiens
[7] = Luminescence Cell-Based Dose Confirmation HTS to Identify Activators of 5'UTR Stem-Loop Driven Alpha-Synuclein mRNA Translation in H4 Neuroglioblastoma Cells. [Related pubchem assays: 1829 (Project Summary), 1814 (Primary HTS)]; type: functional
[8] = Luminescence Cell-Based Dose Response HTS to Identify Activators of Luciferase Translation or Activity in H4 […] Cells. [Related pubchem assays: 1829 (Project Summary), 1814 (Primary HTS)]; type: functional
[9] = viability loss in human Jurkat cells – cell-based, luminescence, cytotoxicity control for P. falciparum gametocyte viability project, dose response (AID 1117277); type: functional;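 also: potency reflects loss of cellular ATP meaning fewer viable cells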
[10] = viability inhibitors of stage V gametocytes – luminescence, dose response (AID 1117278); type: functional, cell-based;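 also: gametocytes exposed to compound for 24 hours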
[11] = target: Estrogen receptor beta (Homo sapiens, UniProt Q92731); assay: blockers of SRC-3 recruitment to ERβ – biochemical, ELISA, streptavidin-HRP readout, orthogonal assay, confirmation (AID 1060)
Sequence of Estrogen receptor beta (Q92731 whole entry): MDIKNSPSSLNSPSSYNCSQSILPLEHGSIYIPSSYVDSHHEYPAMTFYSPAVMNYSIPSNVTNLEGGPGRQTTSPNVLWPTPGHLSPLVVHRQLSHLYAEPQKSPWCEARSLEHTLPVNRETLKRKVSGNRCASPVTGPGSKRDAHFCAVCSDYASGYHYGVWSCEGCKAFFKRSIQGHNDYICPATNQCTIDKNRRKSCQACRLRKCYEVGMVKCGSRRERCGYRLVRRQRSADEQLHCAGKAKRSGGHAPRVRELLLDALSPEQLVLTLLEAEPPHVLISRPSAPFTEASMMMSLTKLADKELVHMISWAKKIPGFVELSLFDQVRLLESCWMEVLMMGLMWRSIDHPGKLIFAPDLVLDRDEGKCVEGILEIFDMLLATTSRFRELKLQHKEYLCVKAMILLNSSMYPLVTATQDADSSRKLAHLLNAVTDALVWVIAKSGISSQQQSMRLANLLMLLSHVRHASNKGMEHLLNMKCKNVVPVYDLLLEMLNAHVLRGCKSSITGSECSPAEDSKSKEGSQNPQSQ

[12] = target: Calpain-2 catalytic subunit (Sus scrofa, UniProt P43367); assay: m-calpain protease blockers, concentration series – biochemical, fluorogenic peptide substrate, dose response (AID 1420); type: functional
Sequence of Calpain-2 catalytic subunit (P43367 whole entry): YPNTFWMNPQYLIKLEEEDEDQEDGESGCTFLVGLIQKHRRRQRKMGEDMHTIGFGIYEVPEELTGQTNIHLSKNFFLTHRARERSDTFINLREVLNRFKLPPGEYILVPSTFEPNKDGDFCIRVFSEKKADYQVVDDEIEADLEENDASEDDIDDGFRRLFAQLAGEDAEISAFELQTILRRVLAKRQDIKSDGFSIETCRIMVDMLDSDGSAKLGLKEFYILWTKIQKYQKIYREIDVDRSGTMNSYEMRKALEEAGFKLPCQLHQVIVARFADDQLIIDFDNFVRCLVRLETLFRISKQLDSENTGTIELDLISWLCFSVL

[13] = Trypanosoma cruzi growth suppression in host cells – NIH3T3 host cells, beta-gal luminescence, confirmation (AID 2044); type: functional, cell-based;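 also: intracellular parasites grown in NIH/3T3 mouse fibroblasts as host cells; luminescent beta-galactosidase reporter signal from transgenic T. cruzi replicating inside host cells; inhibitors lower the luminescence signal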
[14] = NIH3T3 cell viability loss – ATP luminescence, mouse fibroblasts, counter-screen, dose response (AID 2010); type: functional, cell-based;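 also: cells exposed to compound for about 90 hours before reading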
[15] = cells

Sequence of Cytochrome P450 2C9 (P11712 whole entry): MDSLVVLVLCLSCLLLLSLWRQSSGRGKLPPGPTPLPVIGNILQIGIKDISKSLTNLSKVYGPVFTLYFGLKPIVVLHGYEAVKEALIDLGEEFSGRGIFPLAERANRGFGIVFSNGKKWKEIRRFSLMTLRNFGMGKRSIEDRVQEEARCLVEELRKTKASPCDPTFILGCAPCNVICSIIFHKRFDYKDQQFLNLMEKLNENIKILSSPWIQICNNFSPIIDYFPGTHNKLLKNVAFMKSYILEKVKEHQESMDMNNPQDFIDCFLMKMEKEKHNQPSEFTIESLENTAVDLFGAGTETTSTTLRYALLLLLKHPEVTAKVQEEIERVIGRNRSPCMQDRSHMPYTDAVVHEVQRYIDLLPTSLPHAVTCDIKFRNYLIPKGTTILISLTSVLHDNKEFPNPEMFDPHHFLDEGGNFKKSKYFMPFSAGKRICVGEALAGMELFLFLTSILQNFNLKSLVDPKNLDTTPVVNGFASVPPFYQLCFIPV

Cc1cc(C)n(CC(O)COc2ccccc2)n1 (centres undefined)
AC50 [1]: 0.0355 µM (inconclusive) | IC50 [2]: > 50 µM (not active) | AC50 [3]: 15.8 µM (inconclusive) | AC50 [4]: 15.8 µM (inconclusive)

Cc1ccc2nc3c(cc2c1)CC1(C(=O)N(C)C(=O)N(C)C1=O)C1CCCCN31 (centres undefined)
IC50 [5]: > 100 µM (active) | EC50 [6]: 12 µM (active) | EC50 [7]: 35.6 µM (active) | EC50 [8]: 73.9 µM (active)

O=C(NCCCN1CCC(Cc2ccccc2)CC1)C1CCN(S(=O)(=O)N2CCC3(CC2)OCCO3)CC1
IC50 [9]: > 83.3 µM (inactive) | IC50 [10]: > 109 µM (inactive)

COc1cccc(/C=C2\N=C(c3c(-c4ccccc4)noc3C)OC2=O)c1OC
IC50 [2]: > 50 µM (not active)

CC1CCCCN1CC(=O)Nc1sc2c(c1C#N)CCCC2 (centres undefined)
IC50 [11]: 0.0301 µM (not active)

CCN(CC)S(=O)(=O)c1ccc(Cl)c(NC(=O)COC(=O)c2cccn2C)c1
IC50 [9]: > 83.3 µM (inactive) | IC50 [10]: > 109 µM (inactive)

Cc1ccc2nc(NC(=O)CN(C)S(=O)(=O)c3cccc4nsnc34)sc2c1
IC50 [12]: > 50 µM (not active)

CN(C)CCCNc1ccc(-c2nn(C)c(=O)c3ccccc23)cc1[N+](=O)[O-]
EC50 [13]: < 0.1 µM (active) | EC50 [14]: > 60 µM (not active) | EC50 [15]: 0.135 µM (active)

Cc1cccc(OCc2nnc(S)n2C2CCCCC2)c1
IC50 [12]: 15 µM (not active)
